Substitutions are numbered along the chain they refer to.

The target in data set [1] is T1, ScRIB7 (Saccharomyces cerevisiae, UniProt P33312, D83A).
T1 construct: gene RIB7; recombinant in E. coli BL21(DE3), pGEX6p-1, GST tag removed with PreScission protease; homodimer, ~43 kDa by sedimentation
T1 sequence (P33312 1-244 D83A): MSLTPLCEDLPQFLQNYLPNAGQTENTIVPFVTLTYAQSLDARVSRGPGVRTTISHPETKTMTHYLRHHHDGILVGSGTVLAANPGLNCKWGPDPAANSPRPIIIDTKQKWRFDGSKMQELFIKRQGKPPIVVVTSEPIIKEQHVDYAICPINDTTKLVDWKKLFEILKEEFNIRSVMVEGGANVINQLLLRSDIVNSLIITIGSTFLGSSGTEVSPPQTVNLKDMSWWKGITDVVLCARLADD
Put plainly: isothermal titration calorimetry. In kind it is binding. Particulars: 80 µM protein titrated with 800 µM NADPH in PBS.

Data set [2] has as its target T2, ScRIB7 (Saccharomyces cerevisiae, UniProt P33312, T79A).
T2 construct: gene RIB7; recombinant in E. coli BL21(DE3), pGEX6p-1, GST tag removed with PreScission protease; homodimer, ~43 kDa by sedimentation
T2 sequence (P33312 1-244 T79A): T1 sequence (P33312 1-244 D83A) with T79A, A83D
Put plainly: isothermal titration calorimetry. The note with it: 80 µM protein titrated with 800 µM NADPH in PBS. It is filed as binding.

For data set [3], the target named is T3, ScRIB7 (Saccharomyces cerevisiae, UniProt P33312).
T3 construct: gene RIB7; recombinant in E. coli BL21(DE3), pGEX6p-1, GST tag removed with PreScission protease; homodimer, ~43 kDa by sedimentation
T3 sequence (P33312 1-244): T1 sequence (P33312 1-244 D83A) with A83D
As to the kind of experiment: isothermal titration calorimetry. In kind it is binding. Particulars: 80 µM protein titrated with 800 µM NADPH in PBS; crystal structure of the complex (2.35 Å) also solved.

Data set [4] concerns the molecule itself. As to the kind of experiment: SEC; gel filtration, data not shown; conditions of this run not told.

For `NC(=O)C1=CN([C@@H]2O[C@H](COP(=O)(O)OP(=O)(O)OC[C@H]3O[C@@H](n4cnc5c(N)ncnc54)[C@H](OP(=O)(O)O)[C@@H]3O)[C@@H](O)[C@H]2O)C=CC1` [NADPH], the binding constant entry on ScRIB7 [1] was “The binding constant of the D83A mutant with NADPH was similar to that of the wild type”; at ScRIB7 [3], “Interactions between enzymes and NADPH were detected by isothermal titration calorimetry using nano-ITC2g”. In addition, on ScRIB7 [2], the “no interaction heat detected” value is recorded as “no interaction heat was detected for the T79A mutant”.

B1: Saccharomyces cerevisiae RIB7 (enzyme)
chain: T1 sequence (P33312 1-244 D83A) with A83D
notes: RIB7, riboflavin biosynthesis reductase of Saccharomyces cerevisiae; RIB7 gene amplified from genomic DNA and cloned BamHI/XhoI into pGEX6p-1; Wild type; A seleno-methionine derivative was used only for phasing; Residues left by the PreScission site after cleavage are not described; also called ScRIB7; riboflavin biosynthesis reductase RIB7; source: E. coli BL21 (DE3), purified …
In the case of B1, the “stoichiometry N” value in data set [4] came to 2.

These data come from article PMC3631187, “Structural and Functional Insights into Saccharomyces cerevisiae Riboflavin Biosynthesis Reductase RIB7” (PLoS ONE, 2013).
